Reference: US12421210B2, “Fused bicyclic heterocycles as therapeutic agents” (NEW YORK UNIVERSITY, priority 2018, dated 2025)
Like-named read-outs stand apart in the source and are kept apart here.

Target: human NAMPT enzyme (His-hNAMPT) (Homo sapiens (Human), UniProt P43490)
Assay: NAMPT enzymatic inhibition assay (fluorescence, NADH product)
Assay type: biochemical
[1] = [BPS], read-out: NAMPT IC50 (μM) [BPS]
[2] = [HDB], read-out: NAMPT IC50 (μM) [HDB]

human NAMPT enzyme (His-hNAMPT), sequence (P43490 whole entry): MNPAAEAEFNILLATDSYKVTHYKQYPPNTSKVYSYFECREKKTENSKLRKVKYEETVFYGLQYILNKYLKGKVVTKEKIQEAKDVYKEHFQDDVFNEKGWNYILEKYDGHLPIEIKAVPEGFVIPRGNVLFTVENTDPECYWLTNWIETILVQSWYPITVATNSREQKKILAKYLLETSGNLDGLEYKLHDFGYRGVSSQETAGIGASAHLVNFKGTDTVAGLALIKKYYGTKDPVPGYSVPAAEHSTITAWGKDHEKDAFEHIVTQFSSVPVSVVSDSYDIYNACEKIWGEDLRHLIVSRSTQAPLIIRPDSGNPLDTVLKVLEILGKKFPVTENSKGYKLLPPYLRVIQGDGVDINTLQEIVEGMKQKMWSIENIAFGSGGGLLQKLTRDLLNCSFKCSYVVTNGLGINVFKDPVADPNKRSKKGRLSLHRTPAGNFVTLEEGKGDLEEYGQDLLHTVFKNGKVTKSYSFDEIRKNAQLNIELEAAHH

| IC50 [1] [µM] | IC50 [2] [µM] | Compound |
| --- | --- | --- |
| 0.01 to 0.49 |  | Nc1ccc(/C=C/C(=O)NCC[C@@H]2[C@H]3CN(c4cccc5ccccc45)C[C@@H]23)cn1 [Example 191, (E)-3-(6-aminopyridin-3-yl)-N-(2-((1R,5S,6s)-3-(naphthalen-1-yl)-3-azabicyclo[3.1.0]hexan-6-yl)ethyl)acrylamide] |
|  | < 0.01 | Nc1ncc(F)c(N2C[C@@H]3[C@@H](CCNC(=O)/C=C/c4cccnc4)[C@@H]3C2)n1 [Example 312, (E)-N-(2-((1R,5S,6s)-3-(2-amino-5-fluoropyrimidin-4-yl)-3-azabicyclo[3.1.0]hexan-6-yl)ethyl)-3-(pyridin-3-yl)acrylamide] |
| 1 to 29 |  | CC(C)(C)OC(=O)N1C[C@H]2C[C@H](CNC(=O)N3Cc4ccncc4C3)C[C@H]2C1 [Example 273, (3aR,5s,6aS)-tert-butyl 5-((2,3-dihydro-1H-pyrrolo[3,4-c]pyridine-2-carboxamido)methyl)hexahydrocyclopenta[c]pyrrole-2(1H)-carboxylate] |
|  | 0.01 to 0.49 | O=C(/C=C/c1cccnc1)NCC[C@@H]1[C@H]2CN(c3cccc(C(F)(F)F)c3)C[C@@H]12 [Example 138, (E)-3-(pyridin-3-yl)-N-(2-((1R,5S,6s)-3-(3-(trifluoromethyl)phenyl)-3-azabicyclo[3.1.0]hexan-6-yl)ethyl)acrylamide] |
|  | 0.01 to 0.49 | COc1cc(N2C[C@@H]3[C@@H](CCNC(=O)/C=C/c4ccc(N)nc4)[C@@H]3C2)ccn1 [Example 339, (E)-3-(6-aminopyridin-3-yl)-N-(2-((1R,5S,6s)-3-(2-methoxypyridin-4-yl)-3-azabicyclo[3.1.0]hexan-6-yl)ethyl)acrylamide] |
| 0.01 to 0.49 |  | Nc1ccc(/C=C/C(=O)NCC[C@@H]2[C@H]3CN(C(=O)C4CCOCC4)C[C@@H]23)cn1 [Example 95, (E)-3-(6-aminopyridin-3-yl)-N-(2-((1R,5S,6s)-3-(tetrahydro-2H-pyran-4-carbonyl)-3-azabicyclo[3.1.0]hexan-6-yl)ethyl)acrylamide] |
| 1 to 29 |  | CC(C)(C)OC(=O)N1C[C@@H]2[C@H](C1)[C@H]2CC1(NC(=O)/C=C/c2ccc(N)nc2)CC1 [Example 241, (1R,5S,6s)-tert-butyl 6-((1-((E)-3-(6-aminopyridin-3-yl)acrylamido)cyclopropyl)methyl)-3-azabicyclo[3.1.0]hexane-3-carboxylate] |
| 0.01 to 0.49 |  | Nc1ccc(/C=C/C(=O)NCC[C@@H]2[C@H]3CN(C(=O)c4cccc(C(=O)O)c4)C[C@@H]23)cn1 [Example 178, 3-((1R,5S,6s)-6-(2-((E)-3-(6-aminopyridin-3-yl)acrylamido)ethyl)-3-azabicyclo[3.1.0]hexane-3-carbonyl)benzoic acid] |
|  | 0.01 to 0.49 | O=C(NCC[C@@H]1[C@H]2CN(c3ncccn3)C[C@@H]12)c1cc2cnccc2[nH]1 [Example 194, N-(2-((1R,5S,6s)-3-(pyrimidin-2-yl)-3-azabicyclo[3.1.0]hexan-6-yl)ethyl)-1H-pyrrolo[3,2-c]pyridine-2-carboxamide] |
| 0.5 to 0.99 |  | O=C(/C=C/c1cccnc1)NC[C@@H]1[C@H]2CN(C(=O)c3ccccc3)C[C@@H]12 [Example 237, (E)-N-(((1R,5S,6s)-3-benzoyl-3-azabicyclo[3.1.0]hexan-6-yl)methyl)-3-(pyridin-3-yl)acrylamide] |
| 1 to 29 |  | CC(C)(C)OC(=O)N1C[C@H]2CCC(CNC(=O)NCc3cccnc3)C[C@H]2C1 (stereo in doubt) [Example 269, tert-butyl 5-((3-(pyridin-3-ylmethyl)ureido)methyl)hexahydro-1H-isoindole-2(3H)-carboxylate] |
| 0.01 to 0.49 |  | CC(C)(C)NC(=O)N1C[C@@H]2[C@@H](CCNC(=O)c3cc4cnccc4[nH]3)[C@@H]2C1 [Example 82, N(2-((1R,5S,6s)-3-(tert-butylcarbamoyl)-3-azabicyclo[3.1.0]hexan-6-yl)ethyl)-1H-pyrrolo[3,2-c]pyridine-2-carboxamide] |
|  | 0.01 to 0.49 | COc1ccc(/C=C/C(=O)NCC[C@@H]2[C@H]3CN(c4nc(Cl)ncc4F)C[C@@H]23)cn1 [Example 212, (E)-N-(2-((1R,5S,6s)-3-(2-chloro-5-fluoropyrimidin-4-yl)-3-azabicyclo[3.1.0]hexan-6-yl)ethyl)-3-(6-methoxypyridin-3-yl)acrylamide] |
|  | < 0.01 | O=C(/C=C/c1cccnc1)NCC[C@@H]1[C@H]2CN(c3ccnc(OC(F)F)c3)C[C@@H]12 [Example 299, (E)-N-(2-((1R,5S,6s)-3-(2-(difluoromethoxy)pyridin-4-yl)-3-azabicyclo[3.1.0]hexan-6-yl)ethyl)-3-(pyridin-3-yl)acrylamide] |
| 0.01 to 0.49 |  | CC1(OC(=O)N2C[C@@H]3[C@@H](CCNC(=O)c4ccc5nccn5c4)[C@@H]3C2)COC1 [Example 38, (1R,5S,6s)-3-methyloxetan-3-yl 6-(2-(imidazo[1,2-a]pyridine-6-carboxamido)ethyl)-3-azabicyclo[3.1.0]hexane-3-carboxylate] |
|  | 0.01 to 0.49 | O=C(/C=C/c1cccnc1)NCC[C@H]1[C@H]2CN(Cc3ccccc3)C[C@@H]12 [Example 280, (E)-N-(2-((1R,5S,6r)-3-benzyl-3-azabicyclo[3.1.0]hexan-6-yl)ethyl)-3-(pyridin-3-yl)acrylamide] |
|  | 0.01 to 0.49 | COc1ncc(F)c(N2C[C@@H]3[C@@H](CCNC(=O)/C=C/c4cncc(F)c4)[C@@H]3C2)n1 [Example 330, (E)-N-(2-((1R,5S,6s)-3-(5-fluoro-2-methoxypyrimidin-4-yl)-3-azabicyclo[3.1.0]hexan-6-yl)ethyl)-3-(5-fluoropyridin-3-yl)acrylamide] |
| 0.01 to 0.49 |  | O=C(NCC[C@@H]1[C@H]2CN(c3ncccn3)C[C@@H]12)c1ccc2nccn2c1 [Example 118, N-(2-((1R,5S,6s)-3-(pyrimidin-2-yl)-3-azabicyclo[3.1.0]hexan-6-yl)ethyl)imidazo[1,2-a]pyridine-6-carboxamide] |
| 0.01 to 0.49 |  | O=C(NCC[C@@H]1[C@H]2CN(S(=O)(=O)c3ccc(F)cc3)C[C@@H]12)c1cc2ccncc2o1 [Example 72, N-(2-((1R,5S,6s)-3-((4-fluorophenyl)sulfonyl)-3-azabicyclo[3.1.0]hexan-6-yl)ethyl)furo[2,3-c]pyridine-2-carboxamide] |
|  | 0.5 to 0.99 | O=C(/C=C/c1cccnc1)NCC[C@@H]1[C@H]2CN(CC3CCOCC3)C[C@@H]12 [Example 246, (E)-3-(pyridin-3-yl)-N-(2-((1R,5S,6s)-3-((tetrahydro-2H-pyran-4-yl)methyl)-3-azabicyclo[3.1.0]hexan-6-yl)ethyl)acrylamide] |
| 0.01 to 0.49 |  | O=C(NCC[C@@H]1[C@H]2CN(C(=O)OC3CCOCC3)C[C@@H]12)c1cc2cnccc2[nH]1 [Example 83, (1R,5S,6s)-tetrahydro-2H-pyran-4-yl 6-(2-(1H-pyrrolo[3,2-c]pyridine-2-carboxamido)ethyl)-3-azabicyclo[3.1.0]hexane-3-carboxylate] |
| 0.01 to 0.49 |  | COc1cccc(N2C[C@@H]3[C@@H](CCNC(=O)/C=C/c4cccnc4)[C@@H]3C2)c1 [Example 129, (E)-N-(2-((1R,5S,6s)-3-(3-methoxyphenyl)-3-azabicyclo[3.1.0]hexan-6-yl)ethyl)-3-(pyridin-3-yl)acrylamide] |
| 0.01 to 0.49 |  | CC(C)(C)OC(=O)N1C[C@@H]2[C@@H](CCNC(=O)c3ccc4sccc4c3)[C@@H]2C1 [Example 6, (1R,5S,65s)-tert-butyl 6-(2-(benzo[b]thiophene-5-carboxamido)ethyl)-3-azabicyclo[3.1.0]hexane-3-carboxylate] |
|  | 0.01 to 0.49 | COc1cc(N2C[C@@H]3[C@@H](CCNC(=O)/C=C/c4cccnc4)[C@@H]3C2)ccn1 [Example 161, (E)-N-(2-((1R,5S,6S)-3-(2-methoxypyridin-4-yl)-3-azabicyclo[3.1.0]hexan-6-yl)ethyl)-3-(pyridin-3-yl)acrylamide] |
|  | 0.01 to 0.49 | O=C(/C=C/c1ccccc1)NCC[C@@H]1[C@H]2CN(c3nc(Cl)ncc3F)C[C@@H]12 [Example 210, N-(2-((1R,5S,6s)-3-(2-chloro-5-fluoropyrimidin-4-yl)-3-azabicyclo[3.1.0]hexan-6-yl)ethyl)cinnamamide] |
|  | 0.01 to 0.49 | O=C(NCC[C@@H]1[C@H]2CN(c3cccc(F)c3)C[C@@H]12)c1cc2ccncc2o1 [Example 197, N-(2-((1R,5S,6s)-3-(3-fluorophenyl)-3-azabicyclo[3.1.0]hexan-6-yl)ethyl)furo[2,3-c]pyridine-2-carboxamide] |
|  | 0.01 to 0.49 | Cc1noc2ncc(/C=C/C(=O)NCC[C@@H]3[C@H]4CN(C(=O)OC(C)(C)C)C[C@@H]34)cc12 [Example 9, tert-butyl (1R,5S,6s)-6-(2-((E)-3-(3-methylisoxazolo[5,4-b]pyridin-5-yl)acrylamido)ethyl)-3-azabicyclo[3.1.0]hexane-3-carboxylate] |
| 0.5 to 0.99 |  | O=C(NCC[C@@H]1[C@H]2CN(C(=O)NC3CCOCC3)C[C@@H]12)c1cc2ccncc2o1 [Example 59, N-(2-((1R,5S,6s)-3-((tetrahydro-2H-pyran-4-yl)carbamoyl)-3-azabicyclo[3.1.0]hexan-6-yl)ethyl)furo[2,3-c]pyridine-2-carboxamide] |
|  | < 0.01 | O=C(/C=C/c1cccnc1)NCC[C@@H]1[C@H]2CN(C(c3ccccc3)c3ccccc3)C[C@@H]12 [Example 276, (E)-N-(2-((1R,5S,6s)-3-benzhydryl-3-azabicyclo[3.1.0]hexan-6-yl)ethyl)-3-(pyridin-3-yl)acrylamide] |
|  | 0.01 to 0.49 | CS(=O)(=O)Nc1cccc(N2C[C@@H]3[C@@H](CCNC(=O)/C=C/c4cccnc4)[C@@H]3C2)c1 [Example 185, (E)-N-(2-((1R,5S,6s)-3-(3-(methylsulfonamido)phenyl)-3-azabicyclo[3.1.0]hexan-6-yl)ethyl)-3-(pyridin-3-yl)acrylamide] |

| Compound | IC50 [1] [µM] | IC50 [2] [µM] |
| --- | --- | --- |
| O=C(/C=C/c1cccnc1)NCC[C@@H]1[C@H]2CN(c3ncc4c(n3)CCOC4)C[C@@H]12 [Example 166, (E)-N-(2-((1R,5S,6s)-3-(7,8-dihydro-5H-pyrano[4,3-d]pyrimidin-2-yl)-3-azabicyclo[3.1.0]hexan-6-yl)ethyl)-3-(pyridin-3-yl)acrylamide] |  | 0.01 to 0.49 |
